{"source": "ChEMBL document CHEMBL4024712", "about": "“Synthesis, stability and mechanistic studies of potent anticryptococcal hexapeptides” (Eur J Med Chem, 2017)", "key": {"Staphylococcus aureus [1]": {"test_system": "Staphylococcus aureus", "test": "Anti-bacterial activity against Staphylococcus aureus ATCC 29213 by CLSI method", "type": "functional", "conditions": "Staphylococcus aureus, ATCC 29213; call rule not given here"}, "Staphylococcus aureus [2]": {"test_system": "Staphylococcus aureus", "test": "Bactericidal activity against Staphylococcus aureus ATCC 29213 by CLSI method", "type": "functional"}, "Cryptococcus neoformans [3]": {"test_system": "Cryptococcus neoformans", "test": "Fungicidal activity against Cryptococcus neoformans ATCC 90113 after 68 to 72 hrs by Alamar blue assay", "type": "functional"}, "Staphylococcus aureus [4]": {"test_system": "Staphylococcus aureus", "test": "Bactericidal activity against methicillin-resistant Staphylococcus aureus ATCC 33591 by CLSI method", "type": "functional"}, "Pseudomonas aeruginosa": {"test_system": "Pseudomonas aeruginosa", "test": "Anti-bacterial activity against Pseudomonas aeruginosa ATCC 27853 by CLSI method", "type": "functional"}, "Candida albicans": {"test_system": "Candida albicans", "test": "Antifungal activity against Candida albicans ATCC 90028 after 18 to 24 hrs by Alamar blue assay", "type": "functional"}, "Nakaseomyces glabratus": {"test_system": "Nakaseomyces glabratus", "test": "Antifungal activity against Candida glabrata ATCC 90030 after 18 to 24 hrs by Alamar blue assay", "type": "functional"}, "Vero": {"test_system": "Vero", "test": "Cytotoxicity against African green monkey Vero cells up to 10 ug/ml after 48 hrs by neutral red dye based assay", "type": "cell-based", "conditions": "chlorocebus sabaeus"}, "Pichia kudriavzevii [5]": {"test_system": "Pichia kudriavzevii", "test": "Antifungal activity against Candida krusei ATCC 6258 after 18 to 24 hrs by Alamar blue assay", "type": "functional"}, "[6]": {"test_system": "Mycobacterium intracellulare", "test": "Anti-bacterial activity against Mycobacterium intracellulare ATCC 23068 after 68 to 72 hrs by Alamar blue assay", "type": "functional, cell-based"}, "Aspergillus fumigatus": {"test_system": "Aspergillus fumigatus", "test": "Antifungal activity against Aspergillus fumigatus ATCC 90906 after 68 to 72 hrs by Alamar blue assay", "type": "functional"}, "Escherichia coli [7]": {"test_system": "Escherichia coli", "test": "Bactericidal activity against Escherichia coli ATCC 35218 by CLSI method", "type": "functional"}, "Pichia kudriavzevii [8]": {"test_system": "Pichia kudriavzevii", "test": "Fungicidal activity against Candida krusei ATCC 6258 after 18 to 24 hrs by Alamar blue assay", "type": "functional"}, "Escherichia coli [9]": {"test_system": "Escherichia coli", "test": "Anti-bacterial activity against Escherichia coli ATCC 35218 by CLSI method", "type": "functional"}, "Cryptococcus neoformans [10]": {"test_system": "Cryptococcus neoformans", "test": "Antifungal activity against Cryptococcus neoformans ATCC 90113 after 68 to 72 hrs by Alamar blue assay", "type": "functional"}}, "note": "Non-standard residues stand in square brackets, D forms with d. Residues, ends and D or L forms follow the SMILES beside them. His(τ-Bzl) = N[C@@H](Cc1cn(Cc2ccccc2)cn1)C(=O)O; Phe(4-Me) = Cc1ccc(C[C@H](N)C(=O)O)cc1; 1Nal = N[C@@H](Cc1cccc2ccccc12)C(=O)O; Cha = N[C@@H](CC1CCCCC1)C(=O)O; Nle = CCCC[C@H](N)C(=O)O; Orn = NCCC[C@H](N)C(=O)O; Dab = NCC[C@H](N)C(=O)O", "data": [{"compound": "Cc1ccc(C[C@H](NC(=O)[C@@H](Cc2ccccc2)NC(=O)[C@@H](Cc2c[nH]c3ccccc23)NC(=O)[C@@H](N)CCN)C(=O)N[C@H](Cc2ccccc2)C(=O)N[C@@H](Cc2cn(Cc3ccccc3)cn2)C(N)=O)cc1", "note": "(H-[Dab][dW][dF][Phe(4-Me)][dF][His(τ-Bzl)]-NH2)", "values": [{"measurement": "MIC", "setting": "Staphylococcus aureus [1]", "value": 20, "unit": "µg/mL"}, {"measurement": "MBC", "setting": "Staphylococcus aureus [2]", "value": 20, "unit": "µg/mL"}, {"measurement": "MFC", "setting": "Cryptococcus neoformans [3]", "value": 1.25, "unit": "µg/mL"}, {"measurement": "MBC", "setting": "Staphylococcus aureus [4]", "value": 20, "unit": "µg/mL"}]}, {"compound": "CC[C@H](C)[C@H](NC(=O)[C@H](CC1CCCCC1)NC(=O)[C@@H]1CCCN1C(=O)[C@@H](N)CCCN)C(=O)N[C@H](Cc1ccccc1)C(=O)N[C@@H](Cc1cn(Cc2ccccc2)cn1)C(N)=O", "note": "(H-[Orn]P[Cha]I[dF][His(τ-Bzl)]-NH2)", "values": [{"measurement": "IC50", "setting": "Pseudomonas aeruginosa", "value": "Not Active"}, {"measurement": "IC50", "setting": "Candida albicans", "value": "Not Active"}, {"measurement": "IC50", "setting": "Nakaseomyces glabratus", "value": "Not Active"}, {"measurement": "Activity", "setting": "Vero", "value": "Non-Toxic"}, {"measurement": "MFC", "setting": "Cryptococcus neoformans [3]", "value": 2.5, "unit": "µg/mL"}, {"measurement": "IC50", "setting": "Pichia kudriavzevii [5]", "value": "Not Active"}, {"measurement": "IC50", "setting": "[6]", "value": "Not Active"}, {"measurement": "IC50", "setting": "Aspergillus fumigatus", "value": "Not Active"}]}, {"compound": "CC[C@H](C)[C@H](NC(=O)[C@H](CC1CCCCC1)NC(=O)[C@H](CC1CCCCC1)NC(=O)[C@@H](N)CCCN)C(=O)N[C@H](Cc1ccccc1)C(=O)N[C@@H](Cc1cn(Cc2ccccc2)cn1)C(N)=O", "note": "(H-[Orn][Cha][Cha]I[dF][His(τ-Bzl)]-NH2)", "values": [{"measurement": "IC50", "setting": "Pseudomonas aeruginosa", "value": "Not Active"}, {"measurement": "MBC", "setting": "Escherichia coli [7]", "value": 20, "unit": "µg/mL"}, {"measurement": "IC50", "setting": "Candida albicans", "value": "Not Active"}, {"measurement": "IC50", "setting": "Nakaseomyces glabratus", "value": "Not Active"}, {"measurement": "Activity", "setting": "Vero", "value": "Non-Toxic"}, {"measurement": "MFC", "setting": "Pichia kudriavzevii [8]", "value": 20, "unit": "µg/mL"}, {"measurement": "MIC", "setting": "Escherichia coli [9]; Escherichia coli, ATCC 35218", "value": 20, "unit": "µg/mL"}, {"measurement": "IC50", "setting": "[6]", "value": "Not Active"}, {"measurement": "IC50", "setting": "Aspergillus fumigatus", "value": "Not Active"}]}, {"compound": "CCCC[C@H](NC(=O)[C@@H](N)CCCN)C(=O)N[C@@H](CC1CCCCC1)C(=O)N[C@H](C(=O)N[C@H](Cc1ccccc1)C(=O)N[C@@H](Cc1cn(Cc2ccccc2)cn1)C(N)=O)[C@@H](C)CC", "note": "(H-[Orn][Nle][Cha]I[dF][His(τ-Bzl)]-NH2)", "values": [{"measurement": "IC50", "setting": "Pseudomonas aeruginosa", "value": "Not Active"}, {"measurement": "IC50", "setting": "Candida albicans", "value": "Not Active"}, {"measurement": "IC50", "setting": "Nakaseomyces glabratus", "value": "Not Active"}, {"measurement": "Activity", "setting": "Vero", "value": "Non-Toxic"}, {"measurement": "MFC", "setting": "Cryptococcus neoformans [3]", "value": 2.5, "unit": "µg/mL"}, {"measurement": "IC50", "setting": "Pichia kudriavzevii [5]", "value": "Not Active"}, {"measurement": "IC50", "setting": "[6]", "value": "Not Active"}, {"measurement": "IC50", "setting": "Aspergillus fumigatus", "value": "Not Active"}]}, {"compound": "CC[C@H](C)[C@H](NC(=O)[C@H](CC1CCCCC1)NC(=O)[C@H]1CCCN1C(=O)[C@@H](N)CCCN)C(=O)N[C@H](Cc1ccccc1)C(=O)N[C@@H](Cc1cn(Cc2ccccc2)cn1)C(N)=O", "note": "(H-[Orn][dP][Cha]I[dF][His(τ-Bzl)]-NH2)", "values": [{"measurement": "IC50", "setting": "Pseudomonas aeruginosa", "value": "Not Active"}, {"measurement": "IC50", "setting": "Candida albicans", "value": "Not Active"}, {"measurement": "IC50", "setting": "Nakaseomyces glabratus", "value": "Not Active"}, {"measurement": "Activity", "setting": "Vero", "value": "Non-Toxic"}, {"measurement": "MIC", "setting": "Cryptococcus neoformans [10]", "value": 2.5, "unit": "µg/mL"}, {"measurement": "MFC", "setting": "Cryptococcus neoformans [3]", "value": 2.5, "unit": "µg/mL"}, {"measurement": "IC50", "setting": "Pichia kudriavzevii [5]", "value": "Not Active"}, {"measurement": "IC50", "setting": "[6]", "value": "Not Active"}, {"measurement": "IC50", "setting": "Aspergillus fumigatus", "value": "Not Active"}]}, {"compound": "CC[C@H](C)[C@H](NC(=O)[C@H](CC1CCCCC1)NC(=O)[C@@H](Cc1c[nH]c2ccccc12)NC(=O)[C@@H](N)CCCN)C(=O)N[C@@H](Cc1cccc2ccccc12)C(=O)N[C@@H](Cc1cn(Cc2ccccc2)cn1)C(N)=O", "note": "(H-[Orn][dW][Cha]I[1Nal][His(τ-Bzl)]-NH2)", "values": [{"measurement": "IC50", "setting": "Pseudomonas aeruginosa", "value": "Not Active"}, {"measurement": "MIC", "setting": "Staphylococcus aureus [1]", "value": 20, "unit": "µg/mL"}, {"measurement": "IC50", "setting": "Candida albicans", "value": "Not Active"}, {"measurement": "IC50", "setting": "Nakaseomyces glabratus", "value": "Not Active"}, {"measurement": "Activity", "setting": "Vero", "value": "Non-Toxic"}, {"measurement": "MIC", "setting": "Cryptococcus neoformans [10]", "value": 1.25, "unit": "µg/mL"}, {"measurement": "MBC", "setting": "Staphylococcus aureus [2]", "value": 20, "unit": "µg/mL"}, {"measurement": "IC50", "setting": "Escherichia coli [9]", "value": "Not Active"}, {"measurement": "MIC", "setting": "Pichia kudriavzevii [5]; Pichia kudriavzevii, ATCC 6258", "value": 10, "unit": "µg/mL"}, {"measurement": "IC50", "setting": "[6]", "value": "Not Active"}, {"measurement": "IC50", "setting": "Aspergillus fumigatus", "value": "Not Active"}, {"measurement": "MBC", "setting": "Staphylococcus aureus [4]", "value": 10, "unit": "µg/mL"}]}, {"compound": "CC(C)[C@H](NC(=O)[C@H](CC1CCCCC1)NC(=O)[C@@H](Cc1c[nH]c2ccccc12)NC(=O)[C@@H](N)CCCN)C(=O)N[C@H](Cc1ccccc1)C(=O)N[C@@H](Cc1cn(Cc2ccccc2)cn1)C(N)=O", "note": "(H-[Orn][dW][Cha]V[dF][His(τ-Bzl)]-NH2)", "values": [{"measurement": "IC50", "setting": "Pseudomonas aeruginosa", "value": "Not Active"}, {"measurement": "IC50", "setting": "Candida albicans", "value": "Not Active"}, {"measurement": "IC50", "setting": "Nakaseomyces glabratus", "value": "Not Active"}, {"measurement": "Activity", "setting": "Vero", "value": "Non-Toxic"}, {"measurement": "MIC", "setting": "Cryptococcus neoformans [10]", "value": 1.25, "unit": "µg/mL"}, {"measurement": "IC50", "setting": "Escherichia coli [9]", "value": "Not Active"}, {"measurement": "MFC", "setting": "Cryptococcus neoformans [3]", "value": 1.25, "unit": "µg/mL"}, {"measurement": "IC50", "setting": "Pichia kudriavzevii [5]", "value": "Not Active"}, {"measurement": "IC50", "setting": "Aspergillus fumigatus", "value": "Not Active"}]}]}
